Measured values reported in patent publication US9777309B2, “High throughput assay for monitoring AMP production and aminoacyl-tRNA synthetase activity” (Board of Supervisors of Louisiana State University and …, priority 2014, dated 2017).

Columns and labels:
[1] = target: G. stearothermophilus tyrosyl-tRNA synthetase (Geobacillus stearothermophilus, UniProt P00952); assay: Tyrosyl-tRNA synthetase assay with tRNA recycling (AMP release coupled to NADH); conditions: for kcat: aminoacylation of tRNA^Tyr by the named tyrosine isomer, 10 mM MgATP
Experimental: The pH of all stock solutions was adjusted to 7.0 prior to use. All kinetic assays were performed in 96 well microtiter plates at 25° C. using either 100 or 200 μl of assay mix per well. Under these conditions, the path lengths are 0.28 and 0.56 cm, respectively. The reaction rate for formation of the L-Tyr-tRNA^TYr product was determined by monitoring the increase in absorbance at 340 nm associated with the conversion of NAD^+ to NADH using a BioTek Synergy 4 plate reader (ε340=6220 M^−1 cm^−1).
Initial rates for each substrate concentration were determined from a linear fit of the data (A340 vs. time). Km and Vmax values were determined by fitting a plot of the initial rate vs. substrate concentration to the Michaelis-Menten equation, the same equations (1) and (2) above:
[formula] where vo is the initial rate of the reaction and [S] is the substrate concentration. kcat values were calculated from the equation: Vmax=kcat[E]

IMP dehydrogenase = IMP dehydrogenase (Saccharomyces cerevisiae, UniProt P50095); assay type: biochemical
Chain of IMP dehydrogenase (P50095 whole entry): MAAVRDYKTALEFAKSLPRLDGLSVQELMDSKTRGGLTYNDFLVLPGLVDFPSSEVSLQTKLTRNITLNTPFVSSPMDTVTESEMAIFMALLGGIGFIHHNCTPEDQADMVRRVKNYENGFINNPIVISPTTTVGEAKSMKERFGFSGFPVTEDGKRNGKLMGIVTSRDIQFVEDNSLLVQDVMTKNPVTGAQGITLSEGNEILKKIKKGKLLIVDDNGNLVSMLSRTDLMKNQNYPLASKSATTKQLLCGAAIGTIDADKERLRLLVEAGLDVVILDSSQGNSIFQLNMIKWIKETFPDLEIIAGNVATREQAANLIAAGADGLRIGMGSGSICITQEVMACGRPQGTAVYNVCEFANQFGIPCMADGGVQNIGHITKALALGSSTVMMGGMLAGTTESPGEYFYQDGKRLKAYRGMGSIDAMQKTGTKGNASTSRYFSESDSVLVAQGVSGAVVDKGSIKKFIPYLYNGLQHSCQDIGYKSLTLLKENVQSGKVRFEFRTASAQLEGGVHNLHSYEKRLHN

Chain of G. stearothermophilus tyrosyl-tRNA synthetase (P00952 whole entry): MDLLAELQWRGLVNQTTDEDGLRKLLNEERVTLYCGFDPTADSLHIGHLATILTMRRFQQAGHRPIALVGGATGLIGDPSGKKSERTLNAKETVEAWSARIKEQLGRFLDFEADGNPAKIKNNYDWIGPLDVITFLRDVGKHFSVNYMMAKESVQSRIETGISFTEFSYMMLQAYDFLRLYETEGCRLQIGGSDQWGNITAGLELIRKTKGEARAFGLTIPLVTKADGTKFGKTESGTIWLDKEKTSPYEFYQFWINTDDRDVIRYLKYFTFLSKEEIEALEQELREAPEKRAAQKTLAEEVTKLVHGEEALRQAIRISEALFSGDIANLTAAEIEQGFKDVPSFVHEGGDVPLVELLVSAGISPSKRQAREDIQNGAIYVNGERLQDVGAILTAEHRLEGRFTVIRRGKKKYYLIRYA

Compound | kcat [1] | Km^D-Tyr lower than Kd^D-Tyr determined by single turnover kinetics ([1]; single turnover assay was in the absence of tRNA^Tyr) | Km (IMP dehydrogenase; 50 mM TRIS pH 7.2, 25° C., other substrate at 5 mM, standard error in parenthesis) | affinity higher than for the C. albicans IMP dehydrogenase homolog (IMP dehydrogenase; S. cerevisiae vs Candida albicans enzyme)
N[C@H](Cc1ccc(O)cc1)C(=O)O [D-Tyrosine, D-tyrosine] | 0.32 (±0.08) s^−1 | 8 fold |  | 
N[C@@H](Cc1ccc(O)cc1)C(=O)O [L-Tyrosine, L-tyrosine] | 2.8 (±0.6) s^−1 |  |  | 
NC(=O)c1ccc[n+]([C@@H]2O[C@H](COP(=O)([O-])OP(=O)(O)OC[C@H]3O[C@@H](n4cnc5c(N)ncnc54)[C@H](O)[C@@H]3O)[C@@H](O)[C@H]2O)c1 [NAD^+] |  |  | 800 µM | 4 fold
